± gives the expanded uncertainty stated by the source.
Test: xn = mol fraction of the nth substance listed
Conditions: Liquid, Vibrating tube method

OCCO [1,2-ethanediol] + C[S+](C)[O-]
mass density [kg/m3]
Conditions | 101 kPa | 10000 kPa | 25000 kPa | 50000 kPa | 75000 kPa | 100000 kPa
288.15 K, x2 = 0 | – | – | – | 1135.26 ± 0.6 | 1143.65 ± 0.76 | 1151.55 ± 0.94
288.15 K, x2 = 0.0181 | – | – | – | 1135.53 ± 0.6 | 1143.78 ± 0.76 | 1151.74 ± 0.94
288.15 K, x2 = 0.0403 | – | – | – | 1135.69 ± 0.6 | 1144 ± 0.76 | 1152.03 ± 0.94
288.15 K, x2 = 0.0701 | – | – | – | 1135.92 ± 0.6 | 1144.4 ± 0.77 | 1152.42 ± 0.94
288.15 K, x2 = 0.1097 | – | – | – | 1136.1 ± 0.6 | 1144.77 ± 0.77 | 1152.92 ± 0.95
288.15 K, x2 = 0.1408 | – | – | – | 1136.28 ± 0.6 | 1145.05 ± 0.77 | 1153.32 ± 0.95
288.15 K, x2 = 0.1934 | – | – | – | 1136.35 ± 0.6 | 1145.29 ± 0.77 | 1153.81 ± 0.95
288.15 K, x2 = 0.234 | – | – | 1127.02 ± 0.45 | 1136.51 ± 0.6 | 1145.4 ± 0.77 | 1154.03 ± 0.95
288.15 K, x2 = 0.3244 | – | – | 1126.73 ± 0.45 | 1136.43 ± 0.6 | 1145.62 ± 0.77 | 1154.61 ± 0.95
288.15 K, x2 = 0.3764 | – | – | 1126.45 ± 0.45 | 1136.4 ± 0.6 | 1145.68 ± 0.77 | 1154.78 ± 0.95
288.15 K, x2 = 0.4429 | – | – | 1126.08 ± 0.45 | 1136.29 ± 0.6 | 1145.64 ± 0.77 | 1154.83 ± 0.95
288.15 K, x2 = 0.4892 | – | – | 1125.69 ± 0.45 | 1136.07 ± 0.6 | 1145.55 ± 0.77 | 1154.79 ± 0.95
288.15 K, x2 = 0.5654 | – | – | 1125.01 ± 0.45 | 1135.67 ± 0.6 | 1145.31 ± 0.77 | 1154.87 ± 0.95
288.15 K, x2 = 0.6946 | – | – | 1123.4 ± 0.45 | 1134.56 ± 0.6 | 1144.55 ± 0.77 | 1154.68 ± 0.95
298.15 K, x2 = 0 | – | 1113.97 ± 0.36 | 1119.78 ± 0.44 | 1128.78 ± 0.58 | 1137.41 ± 0.74 | –
298.15 K, x2 = 0.0181 | – | 1114 ± 0.36 | 1119.85 ± 0.44 | 1128.92 ± 0.58 | 1137.62 ± 0.74 | –
298.15 K, x2 = 0.0403 | – | 1114.01 ± 0.36 | 1119.92 ± 0.44 | 1129.12 ± 0.58 | 1137.93 ± 0.74 | –
298.15 K, x2 = 0.0701 | – | 1114.01 ± 0.36 | 1119.95 ± 0.44 | 1129.25 ± 0.58 | 1138.31 ± 0.74 | –
298.15 K, x2 = 0.1097 | – | 1113.67 ± 0.36 | 1119.88 ± 0.44 | 1129.29 ± 0.58 | – | –
298.15 K, x2 = 0.1408 | 1109.42 ± 0.32 | 1113.44 ± 0.36 | 1119.71 ± 0.44 | 1129.45 ± 0.58 | – | –
298.15 K, x2 = 0.1934 | 1109.06 ± 0.32 | 1112.87 ± 0.36 | 1119.4 ± 0.44 | 1129.48 ± 0.58 | – | –
298.15 K, x2 = 0.234 | 1108.72 ± 0.32 | 1112.42 ± 0.36 | 1119.03 ± 0.44 | 1129.27 ± 0.58 | – | –
298.15 K, x2 = 0.3244 | 1107.82 ± 0.32 | 1111.54 ± 0.36 | 1118.39 ± 0.44 | 1128.95 ± 0.58 | – | –
298.15 K, x2 = 0.3764 | 1107.21 ± 0.32 | 1110.95 ± 0.36 | 1117.96 ± 0.44 | 1128.79 ± 0.58 | – | –
298.15 K, x2 = 0.4429 | 1106.29 ± 0.31 | – | – | 1128.43 ± 0.58 | – | –
298.15 K, x2 = 0.4892 | 1105.6 ± 0.31 | 1109.49 ± 0.36 | – | 1128.14 ± 0.58 | – | –
298.15 K, x2 = 0.5654 | 1104.44 ± 0.31 | 1108.61 ± 0.36 | 1116.04 ± 0.43 | 1127.67 ± 0.58 | – | –
298.15 K, x2 = 0.6946 | 1102.13 ± 0.31 | 1106.65 ± 0.36 | 1114.43 ± 0.43 | 1126.58 ± 0.58 | – | –
298.15 K, x2 = 0.8142 | 1099.6 ± 0.31 | 1104.54 ± 0.35 | 1112.6 ± 0.43 | 1125.27 ± 0.57 | – | –
298.15 K, x2 = 0.867 | 1098.37 ± 0.31 | – | – | – | – | –
298.15 K, x2 = 0.9266 | 1097.09 ± 0.31 | – | 1110.81 ± 0.43 | 1123.79 ± 0.57 | – | –
298.15 K, x2 = 0.9836 | – | 1101.52 ± 0.35 | – | 1123.02 ± 0.57 | – | –
298.15 K, x2 = 0.9968 | 1095.42 ± 0.31 | – | – | – | – | –

From the NIST ThermoML archive (doi:10.1021/je100089s)
